Assay results from US20100267561A1, “HERBICIDAL PYRIDAZINONE DERIVATIVES” (priority 2007, published 2010).

How the values were obtained:
Assay type in all cases: in vivo
[1] = test system: giant foxtail (Setaria faberi); test: Test A pre-/postemergence plant response
How it was run: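 Seeds sown in loam–sand blend; test chemicals in non-phytotoxic solvent with surfactant applied preemergence as directed soil spray and, concurrently, postemergence to plants 2–10 cm tall at one- to two-leaf stage. Greenhouse ~10 days, then visual injury rating vs untreated controls on 0–100 scale (0 = no effect, 100 = complete control).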

[2] = test system: velvetleaf (Abutilon theophrasti); test: Test B pre-/postemergence plant response
Excerpt: (§1) Seeds of plant species selected from blackgrass (Alopecurus myosuroides), downy bromegrass (Bromus tectorum), green foxtail (Setaria viridis), Italian ryegrass (Lolium multiflorum), wheat (Triticum aestivum), wild oat (Avena fatua), catchweed bedstraw (Galium aparine), bermudagrass (Cynodon dactylon), surinam grass (Brachiaria decumbens), cocklebur (Xanthium strumarium), corn (Zea mays), large crabgrass (Digitaria sanguinalis), woolly cupgrass (Eriochloa villosa), giant foxtail (Setaria faberii), goosegrass (Eleusine indica), johnsongrass (Sorghum halepense), kochia (Kochia scoparia), lambsquarters (Chenopodium album), morningglory (Ipomoea coccinea), eastern black (E.B.) nightshade (Solanum ptycanthum), yellow nutsedge (Cyperus esculentus), pigweed (Amaranthus retroflexus), common ragweed (Ambrosia elation), Russian thistle (Salsola iberica), soybean (Glycine max), common (oilseed) sunflower (Helianthus annuus), and velvetleaf (Abutilon theophrasti) were planted and treated preemergence with test chemicals formulated in a non-phytotoxic solvent mixture which included a surfactant.
(§2) At the same time, plants selected from these crop and weed species and also winter barley (Hordeum vulgare), canarygrass (Phalaris minor), chickweed (Stellaria media) and windgrass (Apera spica-venti) were treated with postemergence applications of some of the test chemicals formulated in the same manner. Plants ranged in height from 2 to 18 cm (1- to 4-leaf stage) for postemergence treatments.
(§3) Plant species in the flooded paddy test consisted of rice (Oryza sativa), umbrella sedge (Cyperus difformis), ducksalad (Heteranthera limosa) and barnyardgrass (Echinochloa crus-galli) grown to the 2-leaf stage for testing. At time of treatment, test pots were flooded to 3 cm above the soil surface, treated by application of test compounds directly to the paddy water, and then maintained at that water depth for the duration of the test. Treated plants and controls were maintained in a greenhouse for 13 to 15 days, after which time all species were compared to controls and visually evaluated. Plant response ratings, summarized in Table B, are based on a scale of 0 to 100 where 0 is no effect and 100 is complete control. A dash (-) response means no test result.

[3] = test system: downy bromegrass (Bromus tectorum); test: Test B pre-/postemergence plant response; details: for Bromegrass, Downy plant response rating: 8 g ai/ha
Excerpt: as §1, §2, §3

[4] = test system: pigweed (Amaranthus retroflexus); test: Test B pre-/postemergence plant response
Excerpt: as §1, §2, §3

[5] = test system: wheat (Triticum aestivum); test: Test B pre-/postemergence plant response
Excerpt: as §1, §2, §3

[6] = test system: johnsongrass (Sorghum halepense); test: Test B pre-/postemergence plant response
Excerpt: as §1, §2, §3

[7] = test system: common (oilseed) sunflower (Helianthus annuus); test: Test B pre-/postemergence plant response; details: Preemergence; for Sunflower plant response rating: scale 0 to 100
Excerpt: as §1, §2, §3

[8] = test system: goosegrass (Eleusine indica); test: Test B pre-/postemergence plant response
Excerpt: as §1, §2, §3

[9] = test system: giant foxtail (Setaria faberii); test: Test B pre-/postemergence plant response
Excerpt: as §1, §2, §3

[10] = test system: blackgrass (Alopecurus myosuroides); test: Test B pre-/postemergence plant response; details: for Blackgrass plant response rating: 8 g ai/ha
Excerpt: as §1, §2, §3

[11] = test system: bermudagrass (Cynodon dactylon); test: Test B pre-/postemergence plant response; details: for Bermudagrass plant response rating: 8 g ai/ha
Excerpt: as §1, §2, §3

soybean (Glycine max) = test: Test B pre-/postemergence plant response; details: for Soybean plant response rating: postemergence, 0-100 scale; for Plant response rating, Soybean: Postemergence
Excerpt: as §1, §2, §3

[12] = 8 g ai/ha, postemergence, 0-100 scale
[13] = 16 g ai/ha, postemergence, 0-100 scale
[14] = Postemergence, 31 g ai/ha, scale 0 to 100
[15] = Postemergence, 62 g ai/ha, scale 0 to 100, 0 no effect, 100 complete control
[16] = Preemergence, 31 g ai/ha, scale 0 to 100 (0 no effect, 100 complete control)
[17] = Preemergence, 62 g ai/ha, 0 to 100 scale, 0 no effect, 100 complete control
[18] = Preemergence, 8 g ai/ha, scale 0 to 100
[19] = Preemergence, 16 g ai/ha, scale 0 to 100
[20] = Postemergence, 16 g ai/ha, scale 0 to 100
[21] = Preemergence, 16 g ai/ha, scale 0 to 100 (0 no effect, 100 complete control)

Cc1cc(-c2ccc(Cl)cc2)nn1-c1c(OC(=S)N(C)C)cnn(C)c1=O [Compound 69]
Plant response rating, Foxtail, Giant ([1]; Postemergence, 31 g ai/ha, 0 to 100 scale (0 no effect, 100 complete control)): 90
Plant response rating, Foxtail, Giant ([1]; Postemergence, 125 g ai/ha, 0 to 100 scale, 0 no effect, 100 complete control): 100
Plant response rating, Foxtail, Giant ([1]; Preemergence, 31 g ai/ha, 0 to 100 scale, 0 is no effect, 100 is complete control): 20
Plant response rating, Foxtail, Giant ([1]; Preemergence, 125 g ai/ha, 0 to 100 scale (0 no effect, 100 complete control)): 90
Velvetleaf plant response rating [2, 12]: 0
Velvetleaf plant response rating [2, 13]: 0
Plant response rating, Velvetleaf [2, 14]: 0
Plant response rating, Velvetleaf [2, 15]: 0
Plant response rating, Velvetleaf [2, 16]: 0
Plant response rating, Velvetleaf [2, 17]: 0
Velvetleaf plant response rating [2, 18]: 0
Velvetleaf plant response rating [2, 19]: 0
Bromegrass, Downy plant response rating ([3]; postemergence, 0-100 scale): 0
Plant response rating, Bromegrass, Downy [3, 20]: 0
Plant response rating, Bromegrass, Downy [3, 14]: 15
Plant response rating, Bromegrass, Downy [3, 15]: 45
Plant response rating, Bromegrass, Downy [3, 21]: 0
Plant response rating, Bromegrass, Downy [3, 16]: 0
Plant response rating, Bromegrass, Downy [3, 17]: 0
Bromegrass, Downy plant response rating ([3]; Preemergence, scale 0 to 100): 0
Pigweed plant response rating [4, 12]: 0
Pigweed plant response rating [4, 13]: 0
Plant response rating, Pigweed [4, 14]: 0
Plant response rating, Pigweed [4, 15]: 0
Plant response rating, Pigweed [4, 16]: 0
Plant response rating, Pigweed [4, 17]: 0
Pigweed plant response rating [4, 18]: 0
Pigweed plant response rating [4, 19]: 0
Wheat plant response rating [5, 12]: 0
Wheat plant response rating [5, 13]: 35
Plant response rating, Wheat [5, 14]: 40
Plant response rating, Wheat [5, 15]: 80
Plant response rating, Wheat [5, 16]: 0
Plant response rating, Wheat [5, 17]: 0
Wheat plant response rating [5, 19]: 0
Johnsongrass plant response rating [6, 12]: 60
Johnsongrass plant response rating [6, 13]: 65
Plant response rating, Johnsongrass [6, 14]: 70
Plant response rating, Johnsongrass [6, 15]: 75
Plant response rating, Johnsongrass [6, 16]: 0
Plant response rating, Johnsongrass [6, 17]: 0
Johnsongrass plant response rating [6, 18]: 0
Johnsongrass plant response rating [6, 19]: 0
Plant response rating, Sunflower ([7]; 31 g ai/ha, scale 0 to 100 (0 no effect, 100 complete control)): 0
Plant response rating, Sunflower ([7]; 62 g ai/ha, 0 to 100 scale, 0 no effect, 100 complete control): 0
Sunflower plant response rating ([7]; 8 g ai/ha): 0
Sunflower plant response rating ([7]; 16 g ai/ha): 0
Goosegrass plant response rating [8, 12]: 60
Goosegrass plant response rating [8, 13]: 70
Plant response rating, Goosegrass [8, 14]: 75
Plant response rating, Goosegrass [8, 15]: 90
Plant response rating, Goosegrass [8, 16]: 0
Plant response rating, Goosegrass [8, 17]: 0
Goosegrass plant response rating [8, 18]: 0
Goosegrass plant response rating [8, 19]: 0
Foxtail, Giant plant response rating [9, 12]: 60
Plant response rating, Foxtail, Giant [9, 20]: 85
Plant response rating, Foxtail, Giant [9, 14]: 100
Plant response rating, Foxtail, Giant [9, 15]: 100
Plant response rating, Foxtail, Giant [9, 16]: 0
Plant response rating, Foxtail, Giant [9, 17]: 0
Foxtail, Giant plant response rating [9, 18]: 0
Foxtail, Giant plant response rating [9, 19]: 0
Blackgrass plant response rating ([10]; postemergence, 0-100 scale): 10
Plant response rating, Blackgrass [10, 20]: 35
Plant response rating, Blackgrass [10, 14]: 35
Plant response rating, Blackgrass [10, 15]: 90
Plant response rating, Blackgrass [10, 21]: 0
Plant response rating, Blackgrass [10, 16]: 40
Plant response rating, Blackgrass [10, 17]: 70
Blackgrass plant response rating ([10]; Preemergence, scale 0 to 100): 0
Bermudagrass plant response rating ([11]; postemergence, 0-100 scale): 20
Plant response rating, Bermudagrass [11, 20]: 65
Plant response rating, Bermudagrass [11, 14]: 95
Plant response rating, Bermudagrass [11, 15]: 98
Bermudagrass plant response rating ([11]; Preemergence, scale 0 to 100 (0 no effect, 100 complete control)): 0
Plant response rating, Bermudagrass [11, 21]: 0
Plant response rating, Bermudagrass [11, 16]: 0
Plant response rating, Bermudagrass [11, 17]: 0
Soybean plant response rating (soybean (Glycine max); 8 g ai/ha): 0
Soybean plant response rating (soybean (Glycine max); 16 g ai/ha): 0
Plant response rating, Soybean (soybean (Glycine max); 31 g ai/ha, scale 0 to 100): 0
Plant response rating, Soybean (soybean (Glycine max); 62 g ai/ha, scale 0 to 100, 0 no effect, 100 complete control): 20
